One may read the logD as the decadic logarithm of the distribution of all forms, ionised or not, between an organic phase and buffer at a given pH. By solubility is commonly meant how much of the substance goes into solution per volume. One may read the clearance as the rate of elimination divided by the concentration. Higher therefore signals efficient removal. A word on the half-life: it is the time needed for the level to fall by half in the phase considered. In general, pKa refers to the negative logarithm of the acid dissociation constant. A lower pKa goes with a group that gives up its proton readily. One may read the bioavailability as the share of a dose that reaches the circulation, judged against a reference dose that is usually intravenous. Low values mean poor availability, high ones good availability. As usually defined, the Papp is the rate of passage across a membrane or cell layer, normalised by area and donor concentration.

Data set [1] is described as follows: Distribution coefficient, logD of the compound at pH 7.4. In kind it is physicochemical. The note with it: octanol/water.
The nature of data set [2]: Aqueous solubility of the compound at pH 7.4. In kind it is physicochemical. The following applies: buffer.
The nature of data set [3]: Intrinsic clearance in rat hepatocytes assessed per 10^6 cells. In kind it is ADME, cell-based, Hepatocyte. The note with it: read-out: CLH.
Data set [4] is described as follows: Clearance in iv dosed rat. Type of data set: ADME, organism-based. The note with it: in vivo.
Data set [5] in a line: Volume of distribution at steady state in iv dosed rat. In kind it is ADME, organism-based. The note with it: in vivo, read-out: Vdss.
The nature of data set [6]: Half life in iv dosed rat. The note with it: in vivo. Type of data set: ADME, organism-based.
A short description of data set [7]: Acid dissociation constant, pKa of the compound. Type of data set: physicochemical.
Data set [8] is described as follows: Oral bioavailability in rat. The following applies: in vivo. Type of data set: ADME, organism-based.
A short description of data set [9]: Clearance in iv dosed dog. Type of data set: ADME, organism-based, Canis lupus familiaris. The note with it: in vivo.
Data set [10] can be described thus: Volume of distribution at steady state in iv dosed dog. Type of data set: ADME, organism-based, Canis lupus familiaris. The note with it: in vivo, read-out: Vdss.
The nature of data set [11]: Half life in iv dosed dog. In kind it is ADME, organism-based, Canis lupus familiaris. The following applies: in vivo.
The nature of data set [12]: Apparent permeability of the compound by PAMPA. Type of data set: ADME.
Data set [13] in a line: Clearance in iv dosed rat relative to hepatic blood flow. In kind it is ADME, organism-based. The following applies: in vivo.
The nature of data set [14]: Clearance in iv dosed dog relative to hepatic blood flow. In kind it is ADME, organism-based, Canis lupus familiaris. The following applies: in vivo.

Molecules are shown by their SMILES. ≈ marks a conversion by molar mass, not a printed value. A value given as a limit tells only on which side of the number the result lay.

As for `Cc1ccc(C(=O)NC2CC2)cc1-n1ccnc(N[C@@H](C)c2ccccc2)c1=O`, the logD in [1] is 3.1. Besides, the solubility in [2] (read-out: solubility) worked out at 50 µM (≈ 19.4 µg/mL). Moreover, the hepatocyte CLint in [3] is under 3 µL/min/1e6 cells.

In the case of `Cc1ccc(C(=O)NC2CC2)cc1-n1ccnc(N(C)Cc2ccccc2)c1=O`, in data set [1], the logD was determined as 3.2. Also, the solubility in data set [2] (read-out: solubility) is 54 µM (≈ 21 µg/mL). Also, the hepatocyte CLint in data set [3] is 59 µL/min/1e6 cells.

Molecule `Cc1ccc(C(=O)NC2CC2)cc1-n1ccnc(Nc2ccccc2)c1=O` yielded a logD in [1] of 3. In addition, the solubility in data set [2] (read-out: solubility) amounted to 405 µM (≈ 146 µg/mL). In addition, the hepatocyte CLint in [3] was 3.3 µL/min/1e6 cells.

Molecule `Cc1ccc(C(=O)NC2CC2)cc1-n1ccnc(N[C@@H](c2ccccc2)[C@@H](C)CN2CCCCC2)c1=O` yielded a logD in data set [1] of 3. The solubility in [2] (read-out: solubility) worked out at 908 µM (≈ 454 µg/mL). Also, the hepatocyte CLint in data set [3] turned out to be 61 µL/min/1e6 cells. Also, the clearance in data set [4] was 50 mL/min/kg. Besides, the Vd in data set [5] came to 5.5 L/kg. This molecule had a half-life in data set [6] of 7.8 h. This molecule came in with a pKa in [7] of 8.4.

On to `CNCCOc1ccccc1C(C)(C)Nc1nccn(-c2cc(C(=O)NC3CC3)ccc2C)c1=O`, for which, in data set [1], the logD was determined as 1.6. Further, the solubility in data set [2] (read-out: solubility) is 650 µM (≈ 309 µg/mL). In addition, the hepatocyte CLint in data set [3] amounted to 20 µL/min/1e6 cells. Further, the values for the clearance in data set [4] and in data set [9] were 59 mL/min/kg and 16.5 mL/min/kg, respectively. Also, the Vd in data set [5] came out at 31.6 L/kg; in [10], 6.4 L/kg. For the same molecule, the half-life is 13 h in data set [6] and 6.6 h in data set [11]. Further, in [8], the bioavailability came to 6%. Also, in data set [12], the Papp stood at 4.2 ×10⁻⁶ cm/s. In data set [7], this molecule came in with a pKa of 9.1. The CL stood at 69% in [13] and 54% in data set [14].

The molecule `COc1cccc(CNc2nccn(-c3cc(C(=O)NC4CC4)ccc3C)c2=O)c1` had a logD in [1] of 2.7. For the same molecule, the solubility in [2] (read-out: solubility) was determined as 351 µM (≈ 142 µg/mL). For the same molecule, the hepatocyte CLint in data set [3] came to 7.4 µL/min/1e6 cells.

In turn, `Cc1ccc(C(=O)NC2CC2)cc1-n1ccnc(NCC2CCCCC2)c1=O` had a logD in data set [1] of 3.7. Moreover, the solubility in data set [2] (read-out: solubility) amounted to 340 µM (≈ 129 µg/mL). Moreover, the hepatocyte CLint in [3] was 7.6 µL/min/1e6 cells.

In [1], `Cc1ccc(C(=O)NC2CC2)cc1-n1ccnc(NCc2ccccc2)c1=O` had a logD of 2.6. Further, the solubility in data set [2] (read-out: solubility) is 23 µM (≈ 8.61 µg/mL). For the same molecule, the hepatocyte CLint in [3] stood at 4.5 µL/min/1e6 cells.

In the case of `CC[C@@H](Nc1nccn(-c2cc(C(=O)NC3CC3)ccc2C)c1=O)c1ccccc1`, the logD in data set [1] was 3.3. In addition, the solubility in [2] (read-out: solubility) is 270 µM (≈ 109 µg/mL). Further, the hepatocyte CLint in data set [3] was 26 µL/min/1e6 cells.

`Cc1ccc(C(=O)NC2CC2)cc1-n1ccnc(NCc2ccccc2OCCN2CCCC2)c1=O` came in with a logD in data set [1] of 1.6. Moreover, in data set [2] (read-out: solubility), the solubility is 670 µM (≈ 327 µg/mL). Further, the hepatocyte CLint in data set [3] stood at 55 µL/min/1e6 cells.

Regarding `Cc1ccc(C(=O)NC2CC2)cc1-n1ccnc(N[C@H](C)c2ccccc2)c1=O`, the logD in data set [1] was 2.9. Besides, the solubility in data set [2] (read-out: solubility) was 734 µM (≈ 285 µg/mL). Also, the hepatocyte CLint in data set [3] was found to be 17 µL/min/1e6 cells.

With `Cc1ccc(C(=O)NC2CC2)cc1-n1ccnc(NCCc2ccccc2)c1=O`, the logD in data set [1] was determined as 3. For the same molecule, the solubility in data set [2] (read-out: solubility) was determined as 392 µM (≈ 152 µg/mL). For the same molecule, the hepatocyte CLint in data set [3] is 130 µL/min/1e6 cells.

In data set [1], `Cc1ccc(C(=O)NC2CC2)cc1-n1ccnc(NC(C)(C)c2ccccc2OCCN2CCCC2)c1=O` gave a log distribution coefficient (logD) of 2.3. For the same molecule, the solubility in data set [2] (read-out: solubility) is over 1000 µM. Moreover, the hepatocyte CLint in data set [3] was determined as 157 µL/min/1e6 cells. This molecule displayed a clearance in data set [4] of 99 mL/min/kg. In addition, the Vd in data set [5] was 16.6 L/kg. Further, the half-life in [6] is 8 h.

In data set [2], `Cc1ccc(C(=O)NC2CC2)cc1-n1cnc2ccc(N3CCN(C)CC3)cc2c1=O` [AZD-6703] had a solubility of 730 µM (≈ 305 µg/mL). Further, the hepatocyte CLint in data set [3] was under 3 µL/min/1e6 cells. This molecule also gave a half-life in data set [6] of 0.7 h.

`Cc1ccc(C(=O)NC2CC2)cc1-n1ccnc(N[C@@H](c2ccccc2)[C@@H](C)CN2CCOCC2)c1=O` displayed a logD in data set [1] of 3.5. Also, the solubility in [2] (read-out: solubility) came to 216 µM (≈ 108 µg/mL). For the same molecule, the hepatocyte CLint in [3] is over 300 µL/min/1e6 cells.

Consider `Cc1ccc(C(=O)NC2CC2)cc1-n1ccnc(NC2CC2)c1=O`, for which the logD in [1] is 1.5. Further, the solubility in data set [2] (read-out: solubility) was over 1000 µM. For the same molecule, the hepatocyte CLint in data set [3] is under 1 µL/min/1e6 cells.

`Cc1ccc(C(=O)NC2CC2)cc1-n1ccnc(N[C@@H](c2ccccc2)[C@@H](C)CN2CCN(C)CC2)c1=O` yielded a logD in [1] of 2.3. The solubility in [2] (read-out: solubility) worked out at 854 µM (≈ 440 µg/mL). Besides, in data set [3], the hepatocyte CLint was determined as 30 µL/min/1e6 cells.

Turning to `Cc1ccc(C(=O)NC2CC2)cc1-n1ccnc(N[C@@H](c2ccccc2)[C@@H](C)CN2CCN[C@H](C)C2)c1=O`, the logD in data set [1] came out at 1.6. Further, the solubility in data set [2] (read-out: solubility) is 847 µM (≈ 436 µg/mL). The hepatocyte CLint in data set [3] was 8.5 µL/min/1e6 cells.

For the molecule `COc1ccccc1CNc1nccn(-c2cc(C(=O)NC3CC3)ccc2C)c1=O`, the solubility in [2] (read-out: solubility) came out at 258 µM (≈ 104 µg/mL). Moreover, the hepatocyte CLint in data set [3] worked out at 22 µL/min/1e6 cells.

In turn, `CNc1nccn(-c2cc(C(=O)NC3CC3)ccc2C)c1=O` displayed a logD in data set [1] of 1.1. In addition, in data set [2] (read-out: solubility), the solubility was over 1000 µM. Besides, the hepatocyte CLint in data set [3] was 1.1 µL/min/1e6 cells.

Molecule `Cc1ccc(C(=O)NC2CC2)cc1-n1ccnc(N[C@@H](c2ccccc2)[C@@H](C)CO)c1=O` had a logD in [1] of 2.6. In addition, in [2] (read-out: solubility), the solubility stood at 870 µM (≈ 376 µg/mL). Moreover, the hepatocyte CLint in data set [3] is 19 µL/min/1e6 cells.

Molecule `Cc1ccc(C(=O)NC2CC2)cc1-n1ccnc(N[C@@H](c2ccccc2)[C@@H](C)CN2CCNCC2)c1=O` yielded a logD in data set [1] of 1.3. Moreover, in data set [2] (read-out: solubility), the solubility worked out at 636 µM (≈ 318 µg/mL). The hepatocyte CLint in data set [3] stood at 15 µL/min/1e6 cells.

The molecule `Cc1ccc(C(=O)NC2CC2)cc1-n1ccnc(N[C@@H](c2ccccc2)[C@@H](C)CN2CCN[C@@H](C)C2)c1=O` registered a logD in data set [1] of 1.5. Moreover, the solubility in data set [2] (read-out: solubility) worked out at 783 µM (≈ 403 µg/mL). The hepatocyte CLint in data set [3] turned out to be 14 µL/min/1e6 cells.

The molecule `Cc1ccc(C(=O)NC2CC2)cc1-n1ccnc(N[C@@H]2CCCc3ccccc32)c1=O` had a logD in data set [1] of 3.7. The solubility in data set [2] (read-out: solubility) was 168 µM (≈ 69.6 µg/mL). The hepatocyte CLint in [3] was determined as 140 µL/min/1e6 cells.

Consider `Cc1ccc(C(=O)NC2CC2)cc1-n1ccnc(NC(C)(C)c2ccccc2)c1=O`, for which the logD in data set [1] was determined as 3.1. Also, in data set [3], the hepatocyte CLint came out at 19 µL/min/1e6 cells.

`CC[C@@H](Nc1nccn(-c2cc(C(=O)NC3CC3)ccc2C)c1=O)c1ccccc1OCCN1CCCC1` registered a logD in [1] of 2.3. Moreover, in data set [2] (read-out: solubility), the solubility worked out at 800 µM (≈ 413 µg/mL). In addition, in data set [3], the hepatocyte CLint came out at 35 µL/min/1e6 cells.

In data set [1], `COc1ccc(CNc2nccn(-c3cc(C(=O)NC4CC4)ccc3C)c2=O)cc1` had a logD of 2.9. The solubility in data set [2] (read-out: solubility) is under 19 µM. In addition, the hepatocyte CLint in data set [3] came to 3.4 µL/min/1e6 cells.

`Cc1ccc(C(=O)NC2CC2)cc1-n1ccnc(N[C@@H](c2ccccc2)[C@@H](C)CN(C)C)c1=O` registered a pH-dependent lipophilicity (logD) in [1] of 2. In [2] (read-out: solubility), the solubility is 843 µM (≈ 387 µg/mL). In data set [3], the hepatocyte CLint was found to be 18 µL/min/1e6 cells.

Molecule `Cc1ccc(C(=O)NC2CC2)cc1-n1ccnc(N)c1=O` came in with a logD in [1] of 0.4.

As to `Cc1ccc(C(=O)NC2CC2)cc1-n1ccnc(N2CCCC2c2ccccc2)c1=O` (racemic), the log distribution coefficient (logD) in data set [1] was determined as 3.3. The solubility in data set [2] (read-out: solubility) was 344 µM (≈ 143 µg/mL). The hepatocyte CLint in data set [3] is 120 µL/min/1e6 cells.
